Experimental data published in patent US8431170B2, “Antimicrobial composition with low cytotoxicity” (Oy Granula AB Ltd., priority 2008, dated 2013).
Read-outs that look alike come from different tables or passages of the source.

Assays:
[1] = Antioxidative capacity: inhibition of the peroxidation of lipids; assay type: biochemical; conditions: pure polyphenols isolated from wood material
From the text: In Tables 4A, 4B, 4C and 4D, there are represented antioxidative and free radical capturing effects of pure polyphenolic compounds and of unrefined polyphenolic compounds containing raw extracts obtained from wood bark and knotty stemwood. Tables 4A and 4B represent the antioxidative effect of a few pure polyphenols and of unrefined polyphenolic compounds containing raw extracts, obtained from wood bark and knotty stemwood. Tables 4C and 4D in turn illustrate the peroxide radicals capturing capacity of a few pure polyphenols and of unrefined, polyphenolic compounds containing raw extracts, obtained from wood bark and knotty stemwood. In Tables 4A-4D, it can be observed that the antioxidative and free radical capturing properties of solutions containing pure polyphenol compounds, obtained from wood material in hydrophilic extraction, are often remarkably different from the corresponding properties of compound mixtures containing unrefined raw extract solutions and obtained from wood material in hydrophilic extraction, owing to the synergetic effects of the compounds contained in the compound mixtures in unrefined extracts. The compound mixtures according to the invention are obtained from these unrefined raw extract solutions.

[2] = Peroxide radicals capturing capacity; assay type: biochemical; conditions: pure polyphenols isolated from wood material
From the text: Tables 4C and 4D further represent the free radicals capturing capacity of certain pure polyphenols and unrefined polyphenol extracts with respect to peroxide radicals. Tables 4A and 4B represent the antioxidative effect of a few pure polyphenols and of unrefined polyphenolic compounds containing raw extracts, obtained from wood bark and knotty stemwood. Tables 4C and 4D in turn illustrate the peroxide radicals capturing capacity of a few pure polyphenols and of unrefined, polyphenolic compounds containing raw extracts, obtained from wood bark and knotty stemwood. In Tables 4A-4D, it can be observed that the antioxidative and free radical capturing properties of solutions containing pure polyphenol compounds, obtained from wood material in hydrophilic extraction, are often remarkably different from the corresponding properties of compound mixtures containing unrefined raw extract solutions and obtained from wood material in hydrophilic extraction, owing to the synergetic effects of the compounds contained in the compound mixtures in unrefined extracts. The compound mixtures according to the invention are obtained from these unrefined raw extract solutions.

[3] = pure polyphenols; values marked 1: Willför et al., J. Agric. Food Chem. 51 (2003); cited from earlier work
[4] = pure polyphenols; values marked 1: Willför et al., J. Agric. Food Chem. 51, 7600-7606 (2003); cited from earlier work
human keratinocyte cells = assay type: cell-based

EC50 which inhibits 50% of the peroxidation of the lipids [1] [µg/L]	Compound	Peroxide radicals capturing capacity [2] [mmol/g]	EC50 which inhibits 50% of the peroxidation of the lipids [3] [µg/L]	Peroxide radicals capturing capacity [4] [mmol/g]	also measured
488	O=C1c2c(O)cc(O)cc2O[C@H](c2ccc(O)cc2)[C@H]1O [Dihydrokaempferol]	0.78	–	–	–
–	COc1cc(C[C@H]2COC(=O)[C@@H]2Cc2ccc(O)c(OC)c2)ccc1O [Matairesinol]	–	99	2.9	–
36	Oc1ccc([C@H]2Oc3c(ccc(O)c3O)[C@@H](O)[C@H]2O)cc1O [Melacasidine]	20	–	–	–
1135	O=C1C[C@@H](c2ccccc2)Oc2cc(O)cc(O)c21 [Pinosembrin]	0.49	–	–	–
–	O=C1c2c(O)cc(O)cc2O[C@H](c2ccc(O)c(O)c2)[C@H]1O [Taxifolin]	–	46	16	–
17	COc1cc([C@H]2c3cc(O)c(OC)cc3C[C@@H](CO)[C@@H]2CO)ccc1O [Cyclolariciresinol]	12	–	–	–
50	Oc1ccc([C@H]2Oc3c(ccc(O)c3O)[C@@H](O)[C@H]2O)cc1 [Teracasidine]	7.8	–	–	–
–	COc1cc(C[C@H]2COC(=O)[C@]2(O)Cc2ccc(O)c(OC)c2)ccc1O [Nortrachelogenin]	–	53	5.9	–
50	Oc1cc(O)cc(/C=C/c2ccccc2)c1 [Pinosylvin]	0.78	–	–	–
–	COc1cc(C[C@@H](CO)[C@H](CO)Cc2ccc(O)c(OC)c2)ccc1O [Secoisolariciresinol]	–	37	8.5	–
–	COc1cc(C[C@H]2CO[C@H](c3ccc(O)c(OC)c3)[C@H]2CO)ccc1O [Lariciresinol]	–	126	2.7	–
–	Cc1cc(C(C)(C)C)c(O)c(C(C)(C)C)c1 [BTH, butylated hydroxytoluene]	–	–	–	EC20 (limit value by which 20% of the cultivated cells died) (human keratinocyte cells; human, 24 h): 5.50 ppm; times more cytotoxic than HMR powder (human keratinocyte cells; ratio to HMR powder): 10-20 times
–	COc1cc(C[C@H]2C(=O)OC[C@@H]2[C@H](O)c2ccc(O)c(OC)c2)ccc1O [Hydroxymatairesinol]	–	58	5.6	–

Compound	EC50 which inhibits 50% of the peroxidation of the lipids [1] [µg/L]	Peroxide radicals capturing capacity [2] [mmol/g]	EC50 which inhibits 50% of the peroxidation of the lipids [3] [µg/L]	Peroxide radicals capturing capacity [4] [mmol/g]	also measured
Pinoresinol	20	7.8	–	–	–
